Laboratory results as given in US8703156B2, “Liquid formulation for deferiprone with palatable taste” (Apotex Technologies Inc., priority 2008, dated 2014).
Peptide text beside a SMILES is read from it.

Experiment: degradation of Aspartame following 2 months storage
Format: physicochemical
Conditions: pH below 3.4; confirmed by degradation following 2 months storage
From the text: The sweetener was changed to Aspartame. After another round of taste testing the formulation with 10 g/L of Aspartame became the most acceptable formulation in terms of taste tolerability, but Aspartame is unstable at pH below 3.4 and this was confirmed by testing the degradation of Aspartame following 2 months storage.

stability of Aspartame: unstable
SMILES: COC(=O)[C@H](Cc1ccccc1)NC(=O)[C@@H](N)CC(=O)O [Aspartame] (HELM PEPTIDE1{D.F.[CO[*:1]]}$$$$V2.0)
